Laboratory results reported in article PMC7367873, “Dissecting the sequence determinants for dephosphorylation by the catalytic subunits of phosphatases PP1 and PP2A” (Nature Communications, 2020).

How the values were obtained:
PP1c = target: T1, PP1c (Homo sapiens, UniProt P62136); experiment: Phosphoproteome dephosphorylation assay of HeLa Kyoto lysate with recombinant PP1c (TMT phosphoproteomics); type: biochemical; conditions: 1 µM recombinant phosphatase, 1 h at 30 °C, 20 nM Calyculin A, three replicates
T1 construct: His tag with TEV site (N, cleaved yes); intein (pTXB1) (C, cleaved yes); made in house; host or cells: E. coli BL21Star(DE3)pRARE
T1 sequence (P62136 whole entry): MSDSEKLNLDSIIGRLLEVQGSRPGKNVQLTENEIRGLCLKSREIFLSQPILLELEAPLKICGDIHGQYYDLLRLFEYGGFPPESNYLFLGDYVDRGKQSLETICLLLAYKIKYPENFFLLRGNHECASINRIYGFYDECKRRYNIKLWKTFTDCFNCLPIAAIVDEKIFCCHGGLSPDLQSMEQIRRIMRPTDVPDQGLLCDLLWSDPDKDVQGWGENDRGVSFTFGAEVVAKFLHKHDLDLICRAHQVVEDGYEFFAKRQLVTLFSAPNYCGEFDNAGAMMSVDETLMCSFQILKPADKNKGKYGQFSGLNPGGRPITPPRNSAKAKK
Description: (§1) For phosphoproteomics, HeLa Kyoto cells were incubated with 20 nM Calyculin A (CST, #9902) for 10–15 min. This time point was determined empirically to yield maximal phosphatase inhibition without cells showing pleiotropic effects. Subsequently, cells were placed on ice and washed twice with cold PBS and scraped in lysis buffer (100 mM NaCl, 10 mM Tris, 0.1% IGEPAL, 1 mM EDTA, 1 mM EGTA, 20 nM Calyculin A, 1x cOmplete Mini protease inhibitor cocktail (Sigma), 1 mM DTT, 1 mM MnCl2, pH 7.5). After 10 pushes through an injection needle (21 G, BD), lysate was cleared from the insoluble fraction by centrifugation (10 min, 10^4 rcf, 4 °C). Protein concentration was then determined by a Bradford Assay and equal amounts of 1 mg total protein were incubated with recombinant PP1c/PP2Ac or buffer at a final phosphatase concentration of 1 µM in a total volume of 200 µL for 1 h at 30 °C. Lysates were then immediately placed on ice. PhosStop […] (Roche) was added and proteins were denatured by adding urea to a final concentration of 8 M taking into account the volume increase. Samples were then snap-frozen in liquid nitrogen for storage and subsequent MS analysis.
(§2) Treated lysates were reduced (10 mM DTT, 30 °C, 30 min) and alkylated (50 mM chloroacetamide, room temperature, 30 min, in the dark), and then diluted to 1.3 M urea using 40 mM Tris-HCl (pH 7.6). […]

PP1c/PP2Ac = experiment: PP1c versus PP2Ac specificity of p-sites (pairwise comparison / hierarchical clustering of phosphoproteomic data); type: biochemical, human; conditions: for share of substrates specific to the phosphatase: hierarchical clustering; for number of specific sequences (cluster size): hierarchical clustering after one-way ANOVA
Description: as §1
Downstream analysis of the phosphoproteomic datasets was carried out using the software tool Perseus[66]. For analysis of phosphoproteomic experiments, row-wise, median-normalized data (see previous section) was linked to known regulatory sites by PhosphoSitePlus entries and categorical columns for treatments were assigned. Reverse peptides and potential contaminants were filtered. Next, categorical columns for biological functions and treatments were assigned. TMT reporter intensities were then transformed into log2. At this point, all data were then filtered for valid values in all three replicates of at least one condition. Next, the distribution of TMT reporter intensities was assessed visually by plotting count-based histogramms and in a multiscatter plot using the Pearson correlation as an estimate of reproducibility. Next, NA (=not available: missing) values were replaced by imputation from a normal distribution (width 0.3, down-shift 1.8, per column). The data quality was routinely assessed by two means: First, by plotting a histogram of peptide length vs. counts and visualization of imputed values to confirm a normal distribution of the data, and secondly by principal component analysis (default settings in Perseus) to judge the sample grouping.
For hierarchical clustering, the results of the one-way ANOVA were processed for two more steps in Perseus: first data were filtered for significant hits from the one-way ANOVA and then subjected to z-transformation. Hierarchical clustering images were produced using Euclidean distance, 300 clusters and 10 rounds of iteration.
Also all further data processing for protein enrichment and extraction of protein sequences in positions −5 to +5 relative to the p-sites of interest for subsequent motif analysis was performed using RStudio with R v3.3.2 using the packages tidyverse and BioStrings. In order to study the sequence specificity of PP1c and PP2Ac on the protein level, position specific probability matrices, representing the relative occurrence for each amino acid surrounding pSer/pThr were produced by extracting sequence information in positions −5 to +5 for all PP1c/PP2Ac-sensitive class I p-sites. Next, the count for each amino acid in each position was divided by the total of all counts for a certain position, resulting in relative abundance. […] Importantly, amino acids with less than 25 counts in PP1-sensitive/-insensitive or PP2A-sensitive/insensitive comparisons were excluded. For calculating a heat map directly comparing PP1c against PP2Ac, these fold changes were divided. […] Obtained p-values were adjusted for multiple testing using the method of Benjamini and Hochberg.
PP1c/PP2Ac-sensitive class I sites were divided into three classes as illustrated for PP1c in Supplementary Fig. 4c. […]

PP2Ac = target: T2, PP2Ac (Homo sapiens, UniProt P67775); experiment: Phosphoproteome dephosphorylation assay of HeLa Kyoto lysate with recombinant PP2Ac (TMT phosphoproteomics); type: biochemical; conditions: 1 µM recombinant phosphatase, 1 h at 30 °C, 20 nM Calyculin A, three replicates
T2 construct: purchased Cayman Chemical 10011237
T2 sequence (P67775 1-308 limits assumed): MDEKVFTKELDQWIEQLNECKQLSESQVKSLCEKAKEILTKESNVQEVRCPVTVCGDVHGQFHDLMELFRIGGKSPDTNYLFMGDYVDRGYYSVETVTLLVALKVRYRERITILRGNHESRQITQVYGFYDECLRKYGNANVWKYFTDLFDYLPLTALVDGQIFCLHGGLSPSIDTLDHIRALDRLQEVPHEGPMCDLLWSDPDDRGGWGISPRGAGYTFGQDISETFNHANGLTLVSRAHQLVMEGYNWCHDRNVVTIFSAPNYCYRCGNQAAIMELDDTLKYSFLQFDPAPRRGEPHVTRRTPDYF
Description: as §1, §2

| Substance | number of class I p-sites dephosphorylated by PP1 (PP1c) [p-sites] | share of substrates specific to the phosphatase (PP1c/PP2Ac) [%] | number of specific sequences (cluster size) (PP1c/PP2Ac) [sequences] | number of class I p-sites dephosphorylated by PP2A (PP2Ac) [p-sites] |
| --- | --- | --- | --- | --- |
| PP1c: recombinant catalytic subunit of PP1 | 1967 | 28 | 777 |  |
| PP2Ac: His-tagged recombinant PPP2CA ΔL309, purchased from Cayman Chemical |  | 24 | 663 | 1840 |
